Laboratory results as given in US4281012A, “[4H]-1,3-Benzodioxin-2-carboxylic acids” (Roussel Uclaf, priority 1978, dated 1981).

Legend:
[1] = tested on: male rats of the Sprague Dawley S.P.F. strain; experiment: Hypolipemiant activity in rats on sucrose- and cholesterol-rich regime, % variation of levels versus untreated controls; type: in vivo, rat (Sprague Dawley S.P.F.); settings: 10 days, esophagus tube, vs untreated controls
Description: This test was effected on groups of 8 male rats of the Sprague Dawley S.P.F. strain weighing about 200 g and the animals received a regime containing 50% of saccharose and which was rich in cholesterol (1%). The rats were treated over 10 days with the test products which were administered through an esophagus tube as a suspension in water containing carboxymethylcellulose. The animals were left without food 16 hours after the last administration of the test product and then killed by an abdominal puncture and from the blood sample with sodium heparinate, the levels of triglycerides, cholesterol and total lipids were determined by the following methods.
The triglyceride level was determined by the semiautomatic technique of Kessler et al [Automation in Analytical Chemistry, 1965, p. 341] modified by Claude et al [Ann. Biol. Clin., Vol. 26 3-4 (1968), p. 451]. The cholesterol levels were determined by the technique of Levine [Symposium Technicon, Vol. I, (1967), p. 25] adapted to auto-analyzer system I. The nephelometric level of total lipids was determined semi-automatically by the method of Girard et al. [Symposium Technicon, 1970]. The variations expressed in percentages of the level of triglycerides, cholesterol and total lipids after administration of the various dosage of the test products in the treated animals as compared to the untreated controls and the results are reported in Table I.

[2] = Acute toxicity in mice, DL50 dose; settings: mouse, in vivo, ip, intraperitoneal, suspension in aqueous carboxymethylcellulose, observed one week
Description: The acute toxicity was determined on groups of 5 mice weighing about 18 to 22 g and the test products were intraperitoneally administered in suspension in an aqueous carboxymethylcellulose.

Question: Which “% Variation of levels, Cholesterol” value ([1]; 5 mg/kg day) does the source give for `C=CC1(c2ccccc2)OC(C(=O)OC)Oc2ccc(Cl)cc21` (single isomer, unassigned) [Example 22, methyl 6-chloro-4-phenyl-4-ethenyl-[4H]-1,3-benzodioxin-2-carboxylate] here?
Answer: The value was -35%.

Question: And the “% Variation of levels, Total Lipids” value ([1]; 5 mg/kg day)?
Answer: Its value is -34%.

Question: What about the “% Variation of levels, Triglycerides” value ([1]; 5 mg/kg day) of the same molecule?
Answer: Its value is -79%.

Question: And the LD50 at 168 h [2]?
Answer: Its LD50 at 168 h is ~700 mg/kg.

Question: With `COC(=O)C1Oc2ccc(OC)cc2C(C)(c2ccccc2)O1` (single isomer, unassigned) [Example 30, methyl 6-methoxy-4-methyl-4-phenyl-[4H]-1,3-benzodioxin-2-carboxylate] as the molecule, how does the “% Variation of levels, Cholesterol” value ([1]; 5 mg/kg day) read?
Answer: The value was -43%.

Question: What about the “% Variation of levels, Total Lipids” value ([1]; 5 mg/kg day) of the same molecule?
Answer: The value was -41%.

Question: And the “% Variation of levels, Triglycerides” value ([1]; 5 mg/kg day)?
Answer: The value was -33%.

Question: What about the LD50 at 168 h [2] of the same molecule?
Answer: Its LD50 at 168 h is > 1000 mg/kg.

Question: Which results are given for `COC(=O)C1Oc2ccc(Cl)cc2C(Cc2ccccc2)(c2ccccc2)O1` (single isomer, unassigned) [Example 32, methyl 6-chloro-4-phenyl-4-benzyl-[4H]-1,3-benzodioxin-2-carboxylate]?
Answer: % Variation of levels, Cholesterol ([1]; 5 mg/kg day): -45%; % Variation of levels, Total Lipids ([1]; 5 mg/kg day): -41%; % Variation of levels, Triglycerides ([1]; 5 mg/kg day): -11%; LD50 at 168 h [2]: > 1000 mg/kg

Question: For `CCC1(CC)OC(C(=O)O)Oc2ccc(Cl)cc21` (stereo not drawn) [Example 1, 6-chloro-4,4-diethyl-[4H]-1,3-benzodioxin-2-carboxylic acid], which “% Variation of levels, Cholesterol” value ([1]; 50 mg/kg day) is on record?
Answer: Its value is -37%.

Question: What about the “% Variation of levels, Total Lipids” value ([1]; 50 mg/kg day) of the same molecule?
Answer: Its value is -39%.

Question: What about the “% Variation of levels, Triglycerides” value ([1]; 50 mg/kg day) of the same molecule?
Answer: Its value is -11%.

Question: And the LD50 at 168 h [2]?
Answer: The LD50 at 168 h was 200 mg/kg.

Question: Which “% Variation of levels, Cholesterol” value ([1]; 50 mg/kg day) does the source give for `CC1(C)OC(C(=O)O)Oc2ccc(Cl)cc21` (stereo not drawn) [Example 2, 6-chloro-4,4-dimethyl-[4H]-1,3-benzodioxin-2-carboxylic acid] here?
Answer: Its value is -23%.

Question: And the “% Variation of levels, Total Lipids” value ([1]; 50 mg/kg day)?
Answer: Its value is -28%.

Question: What about the “% Variation of levels, Triglycerides” value ([1]; 50 mg/kg day) of the same molecule?
Answer: The value was -11%.

Question: What about the LD50 at 168 h [2] of the same molecule?
Answer: The LD50 at 168 h was 450 mg/kg.

Question: For `COC(=O)C1Oc2ccc(Cl)cc2C(C)(c2cccc(C(F)(F)F)c2)O1` (stereo not drawn) [Example 18], which “% Variation of levels, Cholesterol” value ([1]; 2 mg/kg day) is on record?
Answer: The value was -30%.

Question: What about the “% Variation of levels, Total Lipids” value ([1]; 2 mg/kg day) of the same molecule?
Answer: Its value is -29%.

Question: What about the “% Variation of levels, Triglycerides” value ([1]; 2 mg/kg day) of the same molecule?
Answer: The value was -15%.

Question: What about the “% Variation of levels, Cholesterol” value ([1]; 5 mg/kg day) of the same molecule?
Answer: Its value is -41%.

Question: And the “% Variation of levels, Total Lipids” value ([1]; 5 mg/kg day)?
Answer: Its value is -51%.

Question: And the “% Variation of levels, Triglycerides” value ([1]; 5 mg/kg day)?
Answer: The value was -47%.

Question: And the LD50 at 168 h [2]?
Answer: The LD50 at 168 h was > 1000 mg/kg.
